Test [1] concerns spinal cord dorsal hemisection. Briefly: Functional recovery from spinal cord injury (BBB test, rotarod test). The class given is in vivo, mouse. As to the method:
Male Swiss-CD1 mice (8-10 week-old) were anesthetized with a mixture of ketamine and xylazine. The spinal cord had been exposed by making a midline incision of the skin, and by retracting the paravertebral muscles. A laminectomy was performed at the T7-T8 level and the spinal cord exposed. Using iridectomy scissors, a bilateral dorsal hemisection, transecting left and right dorsal finiculus, the dorsal horns, but sparing most parts of the ventral fimiculus, was performed, resulting in a complete transection of the dorsomedial main Cortico Spinal Tract (CST). For the series of mice receiving the peptides a Surgicoll pledget saturated with 10 μl of either p65 or reverse p65 (10 μM) peptides was applied over the transection site and covered with petroleum jelly to prevent diffusion. All inside muscle layer were sutured using fine thread. Skin was sutured using surgical staples. […]
Functional evaluation of the animals was performed at day (D) D1, D4, D7, D14, D21, D28, D35, during the first week following the spinal cord lesion and then on a weekly basis until D35, by two different observers blinded to group identity. Locomotor recovery was evaluated using the BBB test (Basso, Beattie and Bresnahan test; Basso et al., Restor. Neurol. Neurosci, 2002, 5, 189-218). […]
(In general: The rotarod test checks motor coordination on a turning rod.)

The next test concerns 30H12 antibody. In words: ELISA with peptide-BSA conjugate on 30H12-coated plates. Particulars: no competitor, FIG. 12A. The class given is binding. From the text: FIG. 12A: ELISA using 30H12 anti-PSA monoclonal antibody-coated plates.
The specificity of the cyclic peptides was investigated in an ELISA assay using plates coated with 30H12 antibody, following the protocol as described above for the competitive ELISA, with the exception that the competitor was omitted.
Background: In an ELISA, binding on a coated surface is turned into a signal by an enzyme label.

Test [2] concerns 30H12 monoclonal antibody. In words: Competitive binding to PSA-NCAM expressing cells (30H12). Set-up: dose or concentration left out as unconfirmed. As to the method:
FIGS. 12B, 12C and 12D: competitive binding to PSA-NCAM expressing cells. B: pre-incubation of p65 (1 mM) or p66 (1 mM) with MenB anti-PSA antibody. C: 30H12 anti-PSA antibody without peptide. […]
The specificity of p65 and p66 peptides was tested in a competition assay using anti-PSA antibodies and PSA-NCAM expressing cells. […] The binding specificity was examined in greater detail by testing peptide recognition by another anti-PSA mononclonal antibody (MenB). […] Thus, p65 and p66 mimotopes appear to be specific for a unique (idiotypic) determinant.

In test [3] the test system is subventricular zone explants (neuronal precursors). Briefly: Subventricular zone (SVZ) explant culture: cell migration in vitro. The class given is cell-based, mouse. Particulars: 0.4 μM peptide.
For a further test, the system named is mAb 735. Briefly: Competitive ELISA of biotinylated peptide-BSA conjugates on anti-PSA mAb. The following applies: for Binding of peptide to mAb 735 in competitive ELISA (percentage of binding): biotinylated peptide-BSA conjugate. The class given is binding. From the text:
• mAb 735 and 30H12 • MaxiSorp™ plates (NUNC) for coating the antibody: ELISA plates • microtiter plates (NUNC) for peptide dilution: dilution plates • Biotinylated peptide-BSA conjugates prepared as above described • Extravidin alkaline phosphatase-avidin conjugate (SIGMA E2636) • p-nitrophenyl-phosphatase alkaline substrate (SIGMA 104-105) 2.1.2) Buffers • PBS pH 7.4 • Blocking solution: 0.5% BSA in PBS • TBS • TBST: TBS containing 0.05% Tween 20 • Extravidin alkaline phosphatase-avidin conjugate solution: 1/5000 in TBST • Alkaline phosphatase substrate solution; 1 tablet in 5 ml 50 mM NaHCO3, 1 mM MgCl2 solution, […]) Method
Maxisorp™ plate wells were coated with 100 μl mAb solution (25 μg/ml) for 2 h at room temperature. The control wells of the ELISA plates were only coated with the blocking solution. In parallel, the peptide-BSA conjugate dilution plates were blocked with 200 μl blocking solution for 2 h. The antibody coated wells and the control wells were blocked with 200 μl blocking solution for 1 h. In parallel the peptide-BSA conjugate dilution plates were washed 6 times with TBST and 120 μl TBST was added to the wells. An appropriate volume of peptide-BSA conjugate solution was added to the first well and the volume adjusted to 140 μl with TBST. The peptide-BSA conjugate in well one was diluted in the ratio 1/7 by taking 20 μl out of the first well and transferring into the second also to achieve the total volume of 140 μl. This was repeated for the remaining wells. The peptide-BSA conjugate dilutions for the control wells were done the same way. The blocked ELISA plates were washed 6 times with TBST and the peptide-BSA conjugate dilutions or 100 μl of the mixed competitor solution was added to the wells. After incubation for 1 h, the wells were washed 10 times with TBST and 100 μl of the alkaline phosphatase substrate solution was added to the wells. The plates were read out after 10 to 60 min using a microplate reader at 405 nm.
The specificity of peptide p21 (SEQ ID NO: 1) was investigated in a competition ELISA using biotinylated p21-BSA conjugate and a randomized variant of p21 (p22) conjugate as a control. The results presented in Tables X and XI are expressed as percentage of binding by comparison with peptide p21 at the highest concentration (9.45 10^-5 M) which corresponds to 100% binding.

The mark [4] stands for this setting: peptide-BSA conjugate, in words.

For the sequence CSSVTAWTTGCG [p65], the “Rotarod test (fine motor coordination)” value in test [1] (D35) was “beneficial effect on recovery”. For the same sequence, in test [1] (versus p65-reverse controls, starting from D14 post-injury, 10 μl of 10 μM peptide at lesion), the “BBB score (locomotor recovery)” value was “significantly higher”. Further, in the test on 30H12 antibody, the “Binding of cyclic peptides to 30H12 antibody in ELISA” value is given as “highest binding”. In addition, the “Binding of 30H12 monoclonal antibody to PSA-NCAM expressing cells after pre-incubation with peptide” value in test [2] was “prevented its binding”. The “Increase in the rate of migration of the neuronal precursors compared with the control without peptide” value in test [3] was “+40%”.

As to DSPLVPFIDFHP [p21], the “Binding of peptide to mAb 735 in competitive ELISA (percentage of binding)” value (from here on “Binding of peptide … (percentage of binding)”) worked out at 50 ± 1% in the test with mAb 735 (peptide 1.62 10^−9 M, + chondroitin sulfate C); 0 ± 1% in the test on mAb 735 (peptide 1.62 10^−9 M, + colominic acid 1 mM); 56 ± 4% in the test on mAb 735 (peptide 1.62 10^−9 M, no competitor); 99 ± 4% with mAb 735 (peptide 1.67 10^−5 M, + chondroitin sulfate C); 34 ± 3% in the test with mAb 735 (peptide 1.67 10^−5 M, + colominic acid 1 mM); 93 ± 10% in the test on mAb 735 (peptide 1.67 10^−5 M, no competitor). In addition, the “Binding of peptide … (percentage of binding)” value in the test on mAb 735 (peptide 2.86 10^−9 M, + chondroitin sulfate C) was found to be 11 ± 2%; with mAb 735 (peptide 2.86 10^−9 M, + colominic acid 1 mM), 0 ± 0%; in the test on mAb 735 (peptide 2.86 10^−9 M, no competitor), 13 ± 1%; in the test with mAb 735 (peptide 2.94 10^−6 M, + chondroitin sulfate C), 99 ± 8%; with mAb 735 (peptide 2.94 10^−6 M, + colominic acid 1 mM), 23 ± 1%; with mAb 735 (peptide 2.94 10^−6 M, no competitor) it was 95 ± 1%. Moreover, the “Binding of peptide … (percentage of binding)” value in the test with mAb 735 (peptide 5.04 10^−10 M, + chondroitin sulfate C) was 3 ± 0%; with mAb 735 (peptide 5.04 10^−10 M, + colominic acid 1 mM), 0 ± 0%; with mAb 735 (peptide 5.04 10^−10 M, no competitor), 2 ± 0%; in the test with mAb 735 (peptide 5.20 10^−7 M, + chondroitin sulfate C) it was 94 ± 7%; with mAb 735 (peptide 5.20 10^−7 M, + colominic acid 1 mM), 15 ± 3%; with mAb 735 (peptide 5.20 10^−7 M, no competitor), 91 ± 2%. Further, the “Binding of peptide … (percentage of binding)” value turned out to be 2 ± 0% in the test with mAb 735 (peptide 8.89 10^−11 M, + chondroitin sulfate C); 0 ± 0% in the test with mAb 735 (peptide 8.89 10^−11 M, + colominic acid 1 mM); 0 ± 0% in the test with mAb 735 (peptide 8.89 10^−11 M, no competitor); 92 ± 2% with mAb 735 (peptide 9.27 10^−8 M, + chondroitin sulfate C); 5 ± 2% in the test on mAb 735 (peptide 9.27 10^−8 M, + colominic acid 1 mM); 93 ± 9% in the test with mAb 735 (peptide 9.27 10^−8 M, no competitor). Moreover, the “Binding of peptide … (percentage of binding)” value in the test with mAb 735 (peptide 9.45 10^−5 M, + chondroitin sulfate C) turned out to be 96 ± 8%; with mAb 735 (peptide 9.45 10^−5 M, + colominic acid 1 mM), 43 ± 3%; in the test on mAb 735 (peptide 9.45 10^−5 M, no competitor), 100 ± 11%. In addition, the “Binding of peptide to mAb 735” value in the test with mAb 735 (setting [4]) is “binds specifically to mAb 735 in a concentration-dependent manner”. The “Effect of chondroitin sulfate C on peptide binding to mAb 735” value with mAb 735 (setting [4]) is on record as “no influence”. Further, in the test with mAb 735 (setting [4]), the “Effect of colominic acid on peptide binding to mAb 735” value was “clear inhibition”.
